Consider eight compounds from PubChem BioAssay (NCI).

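Each compound was tested at five concentrations against cells in 96-well plates for 48 hours. TGI: concentration producing complete growth inhibition.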

Test systems include M14 melanoma; T-47D breast; SF-539 CNS; IGROV1 ovarian; MDA-N; SN12C renal; HOP-62 NSCLC; SR leukemia; UACC-62 melanoma; HS 578T breast; SNB-75 CNS; NCI-H460 lung; ACHN renal; A498 renal; K-562 leukemia; HOP-92 NSCLC; UO-31 renal; DU-145 prostate; SK-MEL-28 melanoma; BT-549 breast.
Common to all, as to test: NCI-60 cell line screen, 48 h

On to `Cc1cc(-c2cccc3ccccc23)c(C#N)c(=S)n1C1OC(CO)C(O)C(O)C1O` (stereo not given), for which the TGI in the experiment with M14 melanoma, with T-47D breast, with SF-539 CNS, in the experiment on IGROV1 ovarian, in the experiment with MDA-N and in the experiment on SN12C renal was greater than 100 µM each time. The TGI was greater than 100 µM in the experiment on HOP-62 NSCLC; greater than 100 µM in the experiment with SR leukemia; greater than 100 µM in the experiment with UACC-62 melanoma; greater than 100 µM with HS 578T breast; 47.5 µM in the experiment with SNB-75 CNS; greater than 100 µM with NCI-H460 lung. Besides, the TGI with ACHN renal and in the experiment with A498 renal was greater than 100 µM throughout.

With `CCc1cc2c(c3c1CCC3=O)CC1(Cc3ccc(C)cc3C1)C2` (stereo not given), the TGI with K-562 leukemia, in the experiment on M14 melanoma, in the experiment on T-47D breast, in the experiment with SF-539 CNS, in the experiment on IGROV1 ovarian and in the experiment on MDA-N was greater than 100 µM each time. For the same compound, the TGI in the experiment on SN12C renal was greater than 100 µM; in the experiment on HOP-92 NSCLC, 62.8 µM; in the experiment on HOP-62 NSCLC it was greater than 100 µM; with UACC-62 melanoma, greater than 100 µM; in the experiment with HS 578T breast, 86.9 µM; in the experiment with ACHN renal it was greater than 100 µM. Further, the TGI with A498 renal was greater than 100 µM.

On to `CC1=NN(c2cccc(Cl)c2)C(=N/c2nc3ccccc3s2)/C1=C\c1ccc(Cl)cc1`, for which the TGI with K-562 leukemia is greater than 100 µM; in the experiment with M14 melanoma it was 52.2 µM; in the experiment with T-47D breast, greater than 100 µM; in the experiment with SF-539 CNS, 36.4 µM; with IGROV1 ovarian, 33.1 µM; with MDA-N, 56.1 µM. Also, the TGI in the experiment on UO-31 renal is 46.3 µM; in the experiment with HOP-92 NSCLC it was 36.1 µM; in the experiment with DU-145 prostate, greater than 100 µM; in the experiment on HOP-62 NSCLC it was 54.5 µM; in the experiment with SR leukemia, 81 µM; with HS 578T breast it was 60 µM. In addition, the TGI was greater than 100 µM in the experiment on SNB-75 CNS; 34.3 µM in the experiment on NCI-H460 lung; 45.2 µM with SK-MEL-28 melanoma; 58.9 µM with ACHN renal; 43.9 µM with A498 renal.

For `COc1c2cc(C(C)(C)C)cc1Cc1cccc(c1OCc1cccc([N+](=O)[O-])c1)Cc1cc(C(C)(C)C)cc(c1OC)Cc1cccc(c1OCc1cccc([N+](=O)[O-])c1)Cc1cc(C(C)(C)C)cc(c1OC)Cc1cccc(c1OCc1cccc([N+](=O)[O-])c1)C2`, the TGI in the experiment on K-562 leukemia, with M14 melanoma, in the experiment on T-47D breast, in the experiment on SF-539 CNS, in the experiment with IGROV1 ovarian and with MDA-N was greater than 50 µM throughout. The TGI in the experiment with UO-31 renal, with SN12C renal, in the experiment with HOP-92 NSCLC, in the experiment with DU-145 prostate, in the experiment with HOP-62 NSCLC and with SR leukemia was greater than 50 µM each time. Moreover, the TGI with UACC-62 melanoma, in the experiment with SNB-75 CNS, with NCI-H460 lung, in the experiment with SK-MEL-28 melanoma, in the experiment on BT-549 breast and with ACHN renal was greater than 50 µM throughout. The compound also had a TGI with A498 renal greater than 50 µM.

For the compound `O=C(O)c1n[nH][nH]c1=S`, the TGI in the experiment with K-562 leukemia, with M14 melanoma, in the experiment with T-47D breast, in the experiment with SF-539 CNS, with IGROV1 ovarian and in the experiment on MDA-N was greater than 100 µM throughout. Moreover, the TGI in the experiment on UO-31 renal, in the experiment with SN12C renal, in the experiment with HOP-92 NSCLC, in the experiment with DU-145 prostate, with HOP-62 NSCLC and with SR leukemia was greater than 100 µM in each case. Besides, the TGI with UACC-62 melanoma, in the experiment with HS 578T breast, in the experiment with SNB-75 CNS, in the experiment with NCI-H460 lung, in the experiment with SK-MEL-28 melanoma and in the experiment with ACHN renal was greater than 100 µM each time. Moreover, the TGI with A498 renal is greater than 100 µM.

With `OC1c2ccccc2CC12Cc1ccccc1C2` (stereo not given), the TGI in the experiment with K-562 leukemia, with M14 melanoma, with T-47D breast, in the experiment on SF-539 CNS, in the experiment on IGROV1 ovarian and in the experiment with MDA-N was greater than 100 µM each time. For the same compound, the TGI in the experiment with UO-31 renal, with SN12C renal, in the experiment with HOP-92 NSCLC, in the experiment with DU-145 prostate, with HOP-62 NSCLC and in the experiment on SR leukemia was greater than 100 µM throughout. Further, the TGI in the experiment on HS 578T breast, in the experiment on SNB-75 CNS, in the experiment with NCI-H460 lung, in the experiment with SK-MEL-28 melanoma, in the experiment on ACHN renal and in the experiment with A498 renal was greater than 100 µM each time.

As to `Cc1ccc(S(=O)(=O)N2CCC(=O)c3cc(Br)ccc32)cc1`, the TGI in the experiment with K-562 leukemia is greater than 30.9 µM; in the experiment with M14 melanoma, greater than 67 µM; in the experiment with T-47D breast, greater than 100 µM; with SF-539 CNS, 25.3 µM; with IGROV1 ovarian, greater than 100 µM; with MDA-N, 13.3 µM. Also, the TGI with UO-31 renal was greater than 100 µM; in the experiment on SN12C renal, greater than 100 µM; in the experiment on HOP-92 NSCLC it was 98.9 µM; in the experiment on DU-145 prostate, greater than 100 µM; in the experiment on HOP-62 NSCLC, 59.7 µM; with SR leukemia it was greater than 100 µM. Also, the TGI with UACC-62 melanoma was 18.3 µM; in the experiment on SNB-75 CNS, 59.6 µM; in the experiment on NCI-H460 lung it was greater than 55.4 µM; with SK-MEL-28 melanoma, greater than 100 µM; with BT-549 breast it was greater than 88.9 µM; in the experiment on ACHN renal, greater than 100 µM. Besides, the TGI with A498 renal came out at 30.1 µM.

For `O=C1/C(=c2\s/c(=C\c3ccccc3)c(=O)n2-c2ccccc2)SC(=S)N1c1ccccc1`, the TGI in the experiment on K-562 leukemia is greater than 100 µM; in the experiment on M14 melanoma it was greater than 100 µM; with SF-539 CNS, 55.6 µM; in the experiment with IGROV1 ovarian, 87.2 µM; in the experiment on MDA-N, greater than 100 µM; with SN12C renal, greater than 100 µM. In addition, the TGI in the experiment with HOP-92 NSCLC, in the experiment on DU-145 prostate, in the experiment on SR leukemia, in the experiment on UACC-62 melanoma, in the experiment with HS 578T breast and with SNB-75 CNS was greater than 100 µM each time. Further, the TGI in the experiment with NCI-H460 lung was greater than 100 µM; in the experiment on SK-MEL-28 melanoma, greater than 100 µM; in the experiment on ACHN renal, 76.2 µM; in the experiment with A498 renal, greater than 100 µM.
